Where “and” joins values, the source holds several entries; their conditions need not be identical. Equal entries are not always repeated. Entries after “also recorded” stand apart in the source; their conditions may differ. Where two headings read alike, the source gives them in different places.
What was measured:
[1] = molecular target: T1, delta opioid receptor (Rattus norvegicus, UniProt P33533); assay: Delta receptor binding in rat brain membranes (Delta Receptor IC50)
T1 construct: Rat (Sprague-Dawley) brain membranes were prepared; from tissue; host or cells: rat (Sprague-Dawley) brain membranes
Description: The assay procedures used for such determinations of delta receptor activity are set out below.
Inhibition of receptor binding: Rat (Sprague-Dawley) brain membranes were prepared and binding assays were performed at 24° C. for 90 minutes as described by Chang, et al. (J. Biol. Chem. 254, 2610 (1979) and Mol. Pharmacol. 16, 91 (1979)) with a filtration method (GF/C filter). Delta receptor binding assays were performed with (^3H)-(+)-4-((α-R*)-α-((2S*,5R*)-4-Allyl-2,5-dimethyl-1-piperazinyl)-3-hydroxybenzyl)-N,N-diethylbenzamide (0.1 nM), having an activity of ˜48 Ci/mmole, or with ^3H-[D-Pen^2,D-Pen^5-(enkephalin)](^3H-DPDPE, 0.1 nM) having an activity of ˜50 Ci/mmole. Non-specific binding was determined in the presence of 1 mM of the unlabeled ligand. The potency of compounds in inhibiting the binding of (^3H)-(+)-4-((α-R*)-α-((2S*,5R*)-4-Allyl-2,5-dimethyl-1-piperazinyl)-3-hydroxy-benzyl)-N,N-diethylbenzamide or ^3H-DPDPE was determined as the concentration which reduced the binding of the labeled compounds by 50 percent (Delta Receptor IC50).

[2] = molecular target: T2, delta opioid receptor in the mouse vas deferens (Mus musculus, UniProt P32300); assay: Electrically stimulated mouse vas deferens, delta opioid agonist potency (ED50)
T2 construct: Vasa deferentia were removed from mice; from tissue; host or cells: mouse vas deferens (isolated organ bath)

[3] = molecular target: T2, delta opioid receptor in the mouse vas deferens; assay: Antagonist potency (pA2, Schild analysis) in electrically stimulated mouse vas deferens
Description: In vitro bioassays: Vasa deferentia were removed from mice and suspended between platinum electrodes with 0.5 g of tension in organ bath chambers containing a modified Krebs' buffer of the following composition (millimolar): NaCl, 118; KCl, 4.75; CaCl2, 2.6; KH2PO4, 1.20; NaHCO3, 24.5; and glucose, 11. The buffer was saturated with 95% O2/5% CO2 and kept at 37° C. Tissues were stimulated at supramaximal voltage with 10 Hz pulse trains for 400 msec.; train interval 10 seconds; and 0.5 msec pulse duration. […] The ED50 values were extrapolated from curves showing the dose concentration plotted against the response (Lord, et al., Nature 267, 495, (1977)).

[4] = system: rats; assay: Tail-pinch analgesia during alfenta infusion with delta agonist (Example 14); type: in vivo, rat; conditions: continuous i.v. infusion of alfenta and i.v. bolus of various doses
Description: Analgesia was also assessed with a tail-pinch method at the same time points that blood was drawn.

[5] = system: rats; conditions: rat, in vivo, iv
[6] = in vivo; conditions: rat, iv
[7] = system: rats; assay: animal or person; type: in vivo; conditions: Rattus norvegicus, iv, read-out: ED50 to produce analgesia
[8] = rat brain membranes, radioligand 3H-[D-Pen2,D-Pen5]-(enkephalin) 0.1 nM, read-out: Delta Receptor IC50
[9] = inhibition of electrically induced muscle contractions, read-out: Mouse Vas Deferens ED50
[10] = blockade of inhibitory effect of [D-Ala2,D-Leu5] enkephalin (footnote b)

T2 sequence (P32300 whole entry): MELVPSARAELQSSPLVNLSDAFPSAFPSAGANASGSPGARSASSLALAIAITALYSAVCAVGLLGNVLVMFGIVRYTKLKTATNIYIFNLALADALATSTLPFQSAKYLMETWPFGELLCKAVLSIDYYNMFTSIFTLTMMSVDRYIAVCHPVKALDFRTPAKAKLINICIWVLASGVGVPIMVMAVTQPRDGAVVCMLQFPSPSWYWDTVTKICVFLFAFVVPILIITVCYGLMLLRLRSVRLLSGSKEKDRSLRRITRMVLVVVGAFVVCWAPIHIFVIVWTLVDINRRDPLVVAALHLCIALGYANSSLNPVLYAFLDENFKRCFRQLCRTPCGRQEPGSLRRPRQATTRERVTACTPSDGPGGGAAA
T1 sequence (P33533 whole entry): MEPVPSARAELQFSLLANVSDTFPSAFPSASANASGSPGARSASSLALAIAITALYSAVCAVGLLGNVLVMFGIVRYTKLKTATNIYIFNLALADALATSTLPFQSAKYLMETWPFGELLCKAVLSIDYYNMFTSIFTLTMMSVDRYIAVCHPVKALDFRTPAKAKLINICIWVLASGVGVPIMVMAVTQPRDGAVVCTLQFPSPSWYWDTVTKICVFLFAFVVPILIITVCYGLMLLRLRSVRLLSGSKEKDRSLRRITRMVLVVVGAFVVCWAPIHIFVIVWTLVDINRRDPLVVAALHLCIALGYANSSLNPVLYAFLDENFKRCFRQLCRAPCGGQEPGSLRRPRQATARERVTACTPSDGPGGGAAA

| Molecule | IC50 [1, 8] | EC50 [2, 9] | other results |
| --- | --- | --- | --- |
| 3-((αR)-α-((2S,5S)-4-Allyl-2,5-dimethyl-1-piperazinyl)benzyl)phenol and 3-((αS)-α-((2S,5S)-4-Allyl-2,5-dimethyl-1-piperazinyl)benzyl)phenol [Compound 9] | 1.5 nM | 450 nM | – |
| C=CCN1[C@H](C)CN(C(c2ccc(C(=O)N(CC)CC)cc2)c2cccc(O)c2)C[C@@H]1C (mixture of isomers) [Compound 23, (±)-cis-4-(α-(4-Allyl-3,5-dimethyl-1-piperazinyl)-3-hydroxybenzyl)-N,N-diethylbenzamide] | 3.3 nM | 42 nM | – |
| C=CCN1C[C@H](C)N([C@@H](c2cccc(O)c2)c2cccc(C(N)=O)c2)C[C@H]1C (relative stereo) [Compound 6, (±)-3-((αR*)-α-((2S*,5R*)-4-Allyl-2,5-dimethyl-1-piperazinyl)-3-hydroxybenzyl)-benzamide] | 4 nM | 25 nM | – |
| CCN(CC)C(=O)c1ccc([C@H](c2cccc(O)c2)N2C[C@H](C)N(C)C[C@H]2C)cc1 (relative stereo) [Compound 10, (±)-N,N-diethyl-4-((αR*)-3-hydroxy-α-((2R*,5S*)-2,4,5-trimethyl-1-piperazinyl)benzyl)benzamide] | 1.1 nM | 90 nM | melting point: 220 to 221 °C |
| C/C=C\CN1[C@H](C)CN(C(c2ccc(C(=O)N(CC)CC)cc2)c2cccc(O)c2)C[C@@H]1C (relative stereo) [Compound 17, cis-4-(α-(4-((Z)-2-butenyl)-3,5-dimethyl-1-piperazinyl)-3-hydroxybenzyl)-N,N-diethylbenzamide] | 1.5 nM | – | Kb ([3]; blockade of inhibitory effect of (±)-4-((α-R*)-α-((2S*,5R*)-4-allyl-2,5-dimethyl-1-piperazinyl)-3-hydroxybenzyl)-N,N-diethylbenzamide (footnote c)): 6.31 nM |
| C=CCN1C[C@@H](C)N([C@H](c2ccc(S(C)(=O)=O)cc2)c2cccc(O)c2)C[C@@H]1C (relative stereo) [Compound 18, (±)-3-((αR*)-α-((2R*,5S*)-4-allyl-2,5-dimethyl-1-piperazinyl)-4-(methylsulfonyl)benzyl)phenol] | 1.3 nM | 250 nM | – |
| C=CCN1C[C@@H](C)N([C@H](c2ccc(S(=O)(=O)N(C)C)cc2)c2cccc(O)c2)C[C@@H]1C (relative stereo) [Compound 19, (±)-4-((αR*)-α-((2R*,5S*)-4-Allyl-2,5-dimethyl-1-piperazinyl)-3-hydroxybenzyl)-N,N-dimethylbenzenesulfonamide] | 2.6 nM | 37 nM | – |
| C=CCN1C[C@H](C)N([C@H](c2ccccc2)c2cccc(O)c2)C[C@H]1C (relative stereo) [Compound 20, (±)-3-((αR*)-α-((2S*,5R*)-4-Allyl-2,5-dimethyl-1-piperazinyl)benzyl)phenol] | 1.3 nM | 78 nM | – |
| C=CCN1C[C@H](C)N([C@H](c2ccc(C(N)=O)cc2)c2cccc(O)c2)C[C@H]1C (relative stereo) [Compound 21, (±)-4-((αR*)-α-((2S*,5R*)-4-Allyl-2,5-dimethyl-1-piperazinyl)-3-hydroxybenzyl)benzamide] | 1.6 nM | 44 nM | – |
| CCN(CC)C(=O)c1ccc([C@H](c2cccc(O)c2)N2C[C@H](C)NC[C@H]2C)cc1 (relative stereo) [Compound 22, (±)-4-((αR*)-α-((2R*,5S*)-2,5-Dimethyl-1-piperazinyl)-3-hydroxybenzyl)-N,N-diethylbenzamide] | 0.7 nM | 4400 nM | – |
| C=CCN1C[C@@H](C)N([C@H](c2ccc(C(=O)N(CC)CC)cc2)c2cccc(O)c2)C[C@H]1C (stereo in doubt) [Compound 1, (−)-4-((αR)-α-((2R,5R)-4-allyl-2,5-dimethyl-1-piperazinyl)-3-hydroxybenzyl)-N,N-diethylbenzamide] | – | – | IC50 [1]: 2 nM; EC50 [2]: 43 nM |
| C=CCN1C[C@H](C)N([C@H](c2ccc(C(=O)N(CC)CC)cc2)c2cccc(O)c2)C[C@H]1C [BW373U86, (+)-4-((αR)-α-((2S,5R)-4-allyl-2,5-dimethyl-1-piperazinyl)-3-hydroxybenzyl)-N,N-diethylbenzamide] | – | – | effect on analgesia induced by alfenta (tail-pinch) [4]: did not significantly affect the analgesia; effect on alfenta-induced respiratory depression (blood pCO2) [5]: dose dependently reduced the level of pCO2; also recorded: blocks the respiratory depression |
| C=CCN1C[C@@H](C)N([C@@H](c2ccc(C(=O)N(CC)CC)cc2)c2cccc(O)c2)C[C@H]1C [Compound 2, (−)-4-((αS)-α-((2R,5R)-4-Allyl-2,5-dimethyl-1-piperazinyl)-3-hydroxybenzyl)-N,N-diethylbenzamide] | – | – | IC50 [1]: 1 nM |
| CCCN1C[C@@H](C)N([C@@H](c2ccc(C(=O)N(CC)CC)cc2)c2cccc(O)c2)C[C@H]1C [Compound 4, (−)-4-((αS)-α-((2R,5R)-2,5-Dimethyl-4-propyl-1-piperazinyl)-3-hydroxybenzyl)-N,N-diethylbenzamide] | – | > 1000 nM | – |
| C=CCN1C[C@H](C)N([C@H](c2ccc(C(N)=O)cc2)c2cccc(O)c2)C[C@@H]1C [Compound 5] | 1.6 nM | 260 nM | – |
| CCN(CC)C(=O)c1ccc([C@H](c2cccc(O)c2)N2C[C@@H](C)NC[C@H]2C)cc1 [Compound 7, N,N-Diethyl-4-((αR)-3-hydroxy-α-((2R,5R)-2,5-dimethyl-1-piperazinyl)benzyl)benzamide] | 1.1 nM | 560 nM | – |
| C=CCN1C[C@H](C)N([C@H](c2ccc(C(=O)N(C)CC)cc2)c2cccc(O)c2)C[C@@H]1C [Compound 8, 4-((αR)-α-((2S,5S)-4-Allyl-2,5-dimethyl-1-piperazinyl)-3-hydroxybenzyl)-N-ethyl-N-methylbenzamide] | 0.86 nM | 30 nM | – |
| C[C@H]1CN([C@H](c2ccc(C(=O)N3CCCCC3)cc2)c2cccc(O)c2)[C@@H](C)CN1C [Compound 12, 3-((αR)-4-(piperidinocarbonyl)-α-((2S,5S)-2,4,5-trimethyl-1-piperazinyl)benzyl)phenol] | 1.2 nM | 250 nM | – |
| C[C@H]1CN([C@H](c2ccc(C(=O)N3CCCC3)cc2)c2cccc(O)c2)[C@@H](C)CN1C [Compound 13, 3-((αR)-4-(1-pyrrolidinylcarbonyl)-α-((2S,5S)-2,4,5-trimethyl-1-piperazinyl)benzyl)phenol] | 0.3 nM and 0.8 nM | 200 nM | – |
| CCN(CC)C(=O)c1ccc([C@@H](c2cccc(O)c2)N2C[C@H](C)N(C)C[C@@H]2C)cc1 [Compound 14, (+)N,N-Diethyl-4-(3-hydroxy-(αS)-α-((2S,5S)-2,4,5-trimethyl-1-piperazinyl)benzyl)-benzamide] | 2 nM | – | Kb [3, 10]: 79.4 nM |
| CCN(CC)C(=O)c1ccc([C@H](c2cccc(O)c2)N2C[C@@H](C)N(C)C[C@H]2C)cc1 [Compound 15, N,N-diethyl-4-(3-hydroxy-(αR)-α-((2R,5R)-2,4,5-trimethyl-1-piperazinyl)benzyl)benzamide] | 2.8 nM | – | – |
| CCN(C)C(=O)c1ccc([C@H](c2cccc(O)c2)N2C[C@H](C)N(C)C[C@@H]2C)cc1 [Compound 16, N-ethyl-4-((αR)-3-hydroxy-α-((2S,5S)-2,4,5-trimethyl-1-piperazinyl)benzyl)-N-methylbenzamide] | 3.1 nM | – | Kb [3, 10]: 63.1 nM |
| C=CCN1C[C@H](C)N([C@@H](c2cccc(O)c2)c2cccc(C(=O)N(C)c3cccc(F)c3)c2)C[C@H]1C [Compound 3290W93] | – | – | ED50 [6]: 2 mg/kg; ED50 [7]: 0.08 mg/kg |
| cis-4-(α-(3,5-Dimethyl-4-(methylallyl)-1-piperazinyl)-3-hydroxybenzyl)-N,N-diethylbenzamide [Compound 24] | – | 20 nM | – |

Source: patent US6919350B2 (priority 1996, dated 2005)
